Test results published in the supplement of paper PMC11061612.

What was measured:
Test in all cases: Bliss excess, mean over the matrix (fraction); higher = more synergy
[1] = test system: RCC-JW (Kidney Carcinoma)
How it was run: (§1)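 After 24 hours at 37°C and 5% CO2 in 1536-well plates, cells in DMEM/F12 or RPMI plus 10% FBS received two-drug dose matrices for 72 hours. Viability came from CellTiter-Glo 2.0 luminescence and was scaled as inhibition, anchored at 0 by vehicle wells and at 1 by blank wells. Combination Emax is taken as the second-highest inhibition in the matrix, and Bliss excess as the observed combination effect less EA + EB − EA·EB, with EA and EB the single-agent effects.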

[2] = test system: MONO-MAC-6 (Acute Myeloid Leukemia)
How it was run: as §1

[3] = test system: MS-1 (Small Cell Lung Carcinoma)
How it was run: as §1

[4] = test system: KALS-1 (Glioblastoma)
How it was run: as §1

[5] = test system: T84 (Colorectal Carcinoma)
How it was run: as §1

[6] = test system: ZR-75-30 (Breast Carcinoma)
How it was run: as §1

[7] = test system: BxPC-3 (Pancreatic Carcinoma)
How it was run: as §1

[8] = test system: NCI-H3118 (Head and Neck Carcinoma)
How it was run: as §1

[9] = test system: HPAF-II (Pancreatic Carcinoma)
How it was run: as §1

[10] = test system: COR-L88 (Small Cell Lung Carcinoma)
How it was run: as §1

[11] = test system: SCC-4 (Oral Cavity Carcinoma)
How it was run: as §1

[12] = test system: SK-N-SH (Neuroblastoma)
How it was run: as §1

[13] = test system: NCI-H226 (Mesothelioma)
How it was run: as §1

[14] = test system: LS-1034 (Colorectal Carcinoma)
How it was run: as §1

[15] = test system: IST-MEL1 (Melanoma)
How it was run: as §1

[16] = test system: GAK (Melanoma)
How it was run: as §1

[17] = test system: LCLC-103H (Non-Small Cell Lung Carcinoma)
How it was run: as §1

[18] = test system: SKG-IIIa (Cervical Carcinoma)
How it was run: as §1

[19] = test system: IA-LM (Non-Small Cell Lung Carcinoma)
How it was run: as §1

[20] = test system: NAMALWA (Burkitt's Lymphoma)
How it was run: as §1

| Structure (SMILES) | Bliss excess [1] | Bliss excess [2] | Bliss excess [3] | Bliss excess [4] | Bliss excess [5] | Bliss excess [6] | Bliss excess [7] | Bliss excess [8] | Bliss excess [9] | Bliss excess [10] | Bliss excess [11] | Bliss excess [12] | Bliss excess [13] | Bliss excess [14] | Bliss excess [15] | Bliss excess [16] | Bliss excess [17] | Bliss excess [18] | Bliss excess [19] | Bliss excess [20] |
| --- | --- | --- | --- | --- | --- | --- | --- | --- | --- | --- | --- | --- | --- | --- | --- | --- | --- | --- | --- | --- |
| Cc1c2c(nn1C)CSCc1cc(n(C)n1)CSc1cc(c3ccccc3c1)OCCCc1c(C(=O)O)n(C)c3c-2c(Cl)ccc13 [AZD5991] + Nc1ccn([C@@H]2O[C@H](CO)[C@@H](O)C2(F)F)c(=O)n1 [Gemcitabine] (first compound max 1 µM, 7x7, partner max 0.3 µM) | 0.0274 | -0.0133 | -0.0371 | -0.0036 | -0.0187 | 0.0283 | 0.0052 | -0.0107 | -0.0059 | 0.0854 | -0.0333 | -0.0198 | -0.024 | -0.0473 | -0.0045 | 0.01 | -0.0722 | -0.0271 | -0.0384 | -0.0379 |
| C[C@@H](Nc1cc(F)cc(F)c1)c1cc(C(=O)N(C)C)cc2c(=O)cc(N3CCOCC3)oc12 [AZD8186] + CC(=O)c1c(C)c2cnc(Nc3ccc(N4CCNCC4)cn3)nc2n(C2CCCC2)c1=O [Palbociclib] (first compound max 10 µM, 7x7, partner max 10 µM) | 0.0622 | 0.0726 | -0.0484 | 0.0114 | -0.0468 | -0.0465 | -0.0127 | 0.0284 | 0.0384 | 0.0025 | 0.0328 | 0.0108 | -0.0662 | 0.0015 | 0.165 | 0.0192 | -0.0038 | -0.0661 | 0.0122 | 0.0544 |
| CC1(C)CCC(CN2CCN(c3ccc(C(=O)NS(=O)(=O)c4ccc(NCC5CCOCC5)c([N+](=O)[O-])c4)c(Oc4cnc5[nH]ccc5c4)c3)CC2)=C(c2ccc(Cl)cc2)C1 [Venetoclax] + CS(=O)(=O)CCNCc1ccc(-c2ccc3ncnc(Nc4ccc(OCc5cccc(F)c5)c(Cl)c4)c3c2)o1 [Lapatinib] (first compound max 1 µM, 7x7, partner max 10 µM) | -0.0229 | -0.0371 | -0.0021 | -0.0431 | -0.0151 | 0.0215 | -0.0299 | -0.014 | -0.0355 | -0.0146 | -0.0231 | 0.008 | -0.0355 | -0.0412 | -0.0234 | 0.0293 | -0.0319 | -0.0674 | -0.0665 | -0.0072 |
| Cc1cc2ncnn2cc1Nc1ncc2c(n1)n(C1CCOCC1)c(=O)n2C [AZD7648] + COc1cc([C@@H]2c3cc4c(cc3[C@@H](O[C@@H]3O[C@@H]5CO[C@@H](C)O[C@H]5[C@H](O)[C@H]3O)[C@H]3COC(=O)[C@H]23)OCO4)cc(OC)c1O [Etoposide] (first compound max 10 µM, 7x7, partner max 10 µM) | 0.132 | 0.159 | 0.0655 | 0.101 | -0.0105 | -0.0044 | -0.0254 | 0.0669 | 0.0098 | -0.0241 | 0.0043 | 0.0634 | 0.0215 | -0.0205 | 0.0192 | 0.0732 | 0.0526 | 0.0558 | -0.0116 | 0.0745 |
| C[C@@H](Nc1cc(F)cc(F)c1)c1cc(C(=O)N(C)C)cc2c(=O)cc(N3CCOCC3)oc12 [AZD8186] + C1CN(CCC1(C(=O)N[C@@H](CCO)C2=CC=C(C=C2)Cl)N)C3=NC=NC4=C3C=CN4 [AZD5363] (first compound max 10 µM, 7x7, partner max 10 µM) | 0.0563 | 0.0692 | -0.0446 | -0.0397 | -0.0085 | -0.0104 | -0.0731 | -0.022 | 0.0403 | -0.0269 | -0.0276 | -0.0269 | -0.0272 | -0.0177 | -0.013 | -0.0303 | -0.0345 | -0.0225 | 0.001 | 0.0078 |
| C[C@@H]1COCCN1c1cc(C2([S@](C)(=N)=O)CC2)nc(-c2ccnc3[nH]ccc23)n1 [AZD6738] + C1CC(C1)(C(=O)[O-])C(=O)[O-].N.N.[Pt+2] [Carboplatin] (first compound max 10 µM, 7x7, partner max 10 µM) | 0.0051 | -0.0075 | -0.093 | -0.0426 | -0.0041 | -0.0119 | -0.0539 | -0.0423 | -0.0585 | -0.0207 | 0 | -0.028 | -0.0383 | -0.0575 | -0.0271 | -0.0442 | -0.0447 | -0.0079 | -0.047 | -0.0293 |
| CS(=O)(=O)CCNCc1ccc(-c2ccc3ncnc(Nc4ccc(OCc5cccc(F)c5)c(Cl)c4)c3c2)o1 [Lapatinib] + Cn1cnc2c(F)c(Nc3ccc(Br)cc3Cl)c(C(=O)NOCCO)cc21 [Selumetinib] (first compound max 10 µM, 7x7, partner max 10 µM) | -0.0525 | 0.0017 | -0.0277 | 0.0025 | 0.058 | -0.0329 | 0.0703 | 0.0206 | 0.109 | -0.0301 | 0.0318 | -0.0123 | -0.0542 | -0.0089 | 0.0279 | -0.0769 | -0.0744 | 0.001 | -0.0659 | -0.0003 |
| CS(=O)(=O)CCNCc1ccc(-c2ccc3ncnc(Nc4ccc(OCc5cccc(F)c5)c(Cl)c4)c3c2)o1 [Lapatinib] + NC1(c2ccc(-c3nc4ccn5c(=O)[nH]nc5c4cc3-c3ccccc3)cc2)CCC1 [MK-2206] (first compound max 10 µM, 7x7, partner max 10 µM) | -0.0285 | 0.0302 | 0.0368 | -0.004 | 0.0453 | -0.0604 | 0.0263 | 0.0618 | 0.0089 | 0.0151 | 0.0365 | -0.0194 | -0.0287 | 0.0301 | 0.0095 | 0.0347 | -0.0428 | 0.0359 | -0.0179 | 0.0388 |
| Cc1c2c(nn1C)CSCc1cc(n(C)n1)CSc1cc(c3ccccc3c1)OCCCc1c(C(=O)O)n(C)c3c-2c(Cl)ccc13 [AZD5991] + CC(=O)O[C@H]1C(=O)[C@@]2(C)[C@H]([C@H](OC(=O)c3ccccc3)[C@]3(O)C[C@H](OC(=O)[C@H](O)[C@@H](NC(=O)c4ccccc4)c4ccccc4)C(C)=C1C3(C)C)[C@]1(OC(C)=O)CO[C@@H]1C[C@@H]2O [Paclitaxel] (first compound max 1 µM, 7x7, partner max 3 µM) | -0.0029 | 0.0152 | -0.0135 | 0.0314 | -0.0379 | 0.0617 | 0.0075 | 0.0079 | 0.0356 | 0.0486 | -0.0628 | -0.0507 | -0.008 | -0.0473 | -0.0215 | 0.0893 | -0.0118 | -0.036 | -0.0452 | 0.0041 |
| CN(CCO)CC[C@H](CSc1ccccc1)Nc1ccc(S(=O)(=O)NC(=O)c2ccc(N3CCC([C@@H](O)c4ccccc4-c4ccc(Cl)cc4)CC3)cc2)cc1S(=O)(=O)C(F)(F)F [AZD4320] + CC(=O)O[C@H]1C(=O)[C@@]2(C)[C@H]([C@H](OC(=O)c3ccccc3)[C@]3(O)C[C@H](OC(=O)[C@H](O)[C@@H](NC(=O)c4ccccc4)c4ccccc4)C(C)=C1C3(C)C)[C@]1(OC(C)=O)CO[C@@H]1C[C@@H]2O [Paclitaxel] (first compound max 1 µM, 7x7, partner max 3 µM) | 0.0707 | 0.0285 | 0.0825 | 0.0468 | -0.0222 | 0.0901 | 0.157 | 0.019 | 0.0952 | 0.25 | 0.0946 | -0.0254 | 0.131 | 0.0038 | 0.238 | 0.0815 | 0.0719 | 0.133 | 0.08 | -0.01 |
| O=C(c1cc(Cc2n[nH]c(=O)c3ccccc23)ccc1F)N1CCN(C(=O)C2CC2)CC1 [Olaparib] + CC1(C)CCC(CN2CCN(c3ccc(C(=O)NS(=O)(=O)c4ccc(NCC5CCOCC5)c([N+](=O)[O-])c4)c(Oc4cnc5[nH]ccc5c4)c3)CC2)=C(c2ccc(Cl)cc2)C1 [Venetoclax] (first compound max 10 µM, 7x7, partner max 1 µM) | -0.045 | 0.0368 | -0.0266 | -0.0353 | -0.0524 | -0.0247 | -0.0569 | -0.028 | -0.0183 | 0.0604 | -0.0455 | 0.0412 | -0.0428 | -0.0413 | 0.0186 | -0.048 | -0.0212 | -0.0695 | -0.0339 | 0.0044 |
| Cc1c2c(nn1C)CSCc1cc(n(C)n1)CSc1cc(c3ccccc3c1)OCCCc1c(C(=O)O)n(C)c3c-2c(Cl)ccc13 [AZD5991] + CS(=O)(=O)CCNCc1ccc(-c2ccc3ncnc(Nc4ccc(OCc5cccc(F)c5)c(Cl)c4)c3c2)o1 [Lapatinib] (first compound max 1 µM, 7x7, partner max 10 µM) | -0.0401 | 0.0012 | -0.0273 | 0.0053 | 0.0239 | 0.063 | -0.005 | 0.0426 | -0.0209 | -0.0283 | 0.0449 | 0.0615 | -0.0183 | -0.0332 | -0.005 | 0.015 | -0.025 | 0.0014 | -0.0292 | -0.0204 |
| C[C@@H](Oc1cc(-c2cnn(C3CCNCC3)c2)cnc1N)c1c(Cl)ccc(F)c1Cl [Crizotinib] + Cn1cnc2c(F)c(Nc3ccc(Br)cc3Cl)c(C(=O)NOCCO)cc21 [Selumetinib] (first compound max 10 µM, 7x7, partner max 10 µM) | -0.0432 | 0.023 | -0.0926 | -0.005 | -0.0143 | -0.0416 | -0.0323 | -0.0222 | 0.0008 | -0.0464 | -0.0514 | -0.0546 | -0.0387 | -0.0843 | 0.0273 | -0.0473 | -0.0221 | -0.0048 | -0.0463 | -0.0259 |
